The subject of assay [1] is ILPR-DNA a2 (DNA, G4) ACAGGGGTGTGGGGACAGGGGTGTGGGG
Kind of assay: fluorimetric titration. As to conditions: K+ 95 mM, potassium phosphate buffer, pH 7.0, 20 °C, DNA concentration in nucleotide bases, per base.

For assay [2], the system named is Fa2T (DNA, G4) ACAGGGGTGTGGGGACAGGGGTGTGGGG
Kind of assay: FRET melting. Particulars: K+ 10 mM, Li+ 90 mM, Na+ 10 mM; cacodylate buffer, pH 7.2; DNA 0.2 µM; ligand–DNA ratio 5.0.

For assay [3], the system named is 22AG (DNA, G4) AGGGTTAGGGTTAGGGTTAGGG
Kind of assay: fluorimetric titration. Particulars: K+ 95 mM; 20 °C; DNA concentration in oligonucleotide.

Assay [4] shares this test system. The assay is described as follows: CD spectroscopy (induced CD).

We go through ten molecules from publication PMC4273293 (2014).

By ΔTm is commonly meant the shift of the melting midpoint relative to a reference.

On to `CN1C(=CC=C(C=CC2=[N+](C)c3ccccc3C2(C)C)C=CC2=[N+](C)c3ccccc3C2(C)C)C=Cc2ccccc21`, for which, in assay [1] (site 1 of 2), the “Kb^a2” value came out at 1.7e+07 M⁻¹. Also, in assay [2], the shift in melting temperature (ΔTm) worked out at 3.4 ± 0.5 °C. For the same molecule, in assay [3], the “Kb^22AG” value amounted to 390000 M⁻¹.

Regarding `CN1C(=CC=C(C=Cc2ccc3ccccc3[n+]2C)C=Cc2ccc3ccccc3[n+]2C)C(C)(C)c2ccccc21`, the “Kb^a2” value in assay [1] (site 1 of 2) is 5.5e+06 M⁻¹. Further, the ΔTm in assay [2] amounted to 3.7 ± 0.5 °C. Besides, in assay [3], the “Kb^22AG” value is 900000 M⁻¹.

With `CN1C(=CC=C(C=Cc2ccc3ccccc3[n+]2C)C=Cc2ccc3ccccc3[n+]2C)C=Cc2ccccc21`, the “Kb^a2” value in assay [1] came out at 2.7e+06 M⁻¹. Moreover, the shift in melting temperature (ΔTm) in assay [2] was 14.5 ± 0.5 °C. Also, the “Kb^22AG” value in assay [3] was 200000 M⁻¹.

As to `CN1C(=CC=C(C=Cc2sc3ccccc3[n+]2C)C=Cc2sc3ccccc3[n+]2C)Sc2ccccc21`, in assay [1], the “Kb^a2” value turned out to be 1.2e+06 M⁻¹. Further, the ΔTm in assay [2] stood at 4.9 ± 0.5 °C.

`CN1C(=Cc2cc[n+](C)c3ccccc23)Sc2ccccc21`: in assay [4], the binding result is on record as “yes”. For the same molecule, the “Kb^a2” value in assay [1] stood at 300000 M⁻¹. In addition, the ΔTm in assay [2] came to 1.8 ± 0.5 °C.

Take `CN1C=CC(=CC=C(C=Cc2cc[n+](C)c3ccccc23)C=Cc2cc[n+](C)c3ccccc23)c2ccccc21`: the “Kb^a2” value in assay [1] is 200000 M⁻¹. For the same molecule, the ΔTm in assay [2] turned out to be 3.5 ± 0.5 °C. Besides, the “Kb^22AG” value in assay [3] was determined as 200000 M⁻¹.

As for `COc1cc2cc3c4cc(OC)c(OC)cc4cc[n+]3c(C)c2cc1OC`, the “Kb^a2” value in assay [1] was 2.5e+06 M⁻¹. The ΔTm in assay [2] was determined as 3.1 ± 0.5 °C.

`C[n+]1cc(NC(=O)c2cccc(C(=O)Nc3cc4ccccc4[n+](C)c3)n2)cc2ccccc21`: the “Kb^a2” value in assay [1] was found to be 2.4e+06 M⁻¹. Besides, the ΔTm in assay [2] amounted to 14.9 ± 0.5 °C.

On to `C[n+]1ccc(-c2c3nc(c(-c4cc[n+](C)cc4)c4ccc([nH]4)c(-c4cc[n+](C)cc4)c4nc(c(-c5cc[n+](C)cc5)c5ccc2[nH]5)C=C4)C=C3)cc1`, for which, in assay [1], the “Kb^a2” value came out at 2.2e+06 M⁻¹. In assay [2], the thermal shift (ΔTm) came to 6.3 ± 0.5 °C.

On to `c1cc[n+]2cc3c(cc2c1)c1cc2cccc[n+]2cc1c1c2c[n+]4ccccc4cc2c2cc4cccc[n+]4cc2c31`, for which the “Kb^a2” value in assay [1] stood at 3.5e+06 M⁻¹. The ΔTm in assay [2] turned out to be 5.8 ± 0.5 °C.
